According to patent US10266544B2, “Aryl substituted aminomethyl spectinomycin analogs as antibacterial agents” (ST. JUDE CHILDREN'S RESEARCH HOSPITAL, INC., priority 2013, dated 2019):
Structures can show the parent of a compound that is named as a salt. Where two headings read alike, the source gives them in different places.

Key:
Format in all cases: cell-based
[1] = system: MRSA, Staphylococcus aureus (NRS70); test: MIC determination, microbroth dilution; conditions: Staphylococcus aureus (NRS70); read-out: MIC MRSA
[2] = system: Bacillus anthracis, Sterne 34F2; test: microbe, parasite or virus in culture; conditions: STERNE34F2, read-out: MIC B.a.
[3] = system: M. tuberculosis clinical isolates; test: microbe, parasite or virus in culture; conditions: Mycobacterium tuberculosis, H37RV, read-out: MIC H37Rv
[4] = system: acinetobacter baumannii (ATCC 19606); test: MIC determination, microbroth dilution; conditions: ATCC19606
[5] = system: Neisseria meningitides (ATCC 13077); test: Disc diffusion assay; conditions: ATCC13077, 4 μg per disc, read-out: Zone of inhibition N.m.
Listeria monocytogenes = test: MIC determination (Table 6)
[6] = system: Neisseria gonorrhoeae (ATCC 49226); test: Agar MIC determination (Alamar Blue)
[7] = system: Streptococcus pneumoniae (R6); test: MIC determination, microbroth dilution; conditions: Streptococcus pneumoniae (R6); read-out: MIC S. pn.
[8] = system: Pseudomonas aeruginosa (PA01); test: MIC determination, microbroth dilution
[9] = system: Neisseria gonorrhoeae (ATCC 49226); test: Disc diffusion assay; conditions: ATCC49226, 4 μg per disc, read-out: Zone of inhibition N.g.
[10] = system: Stenotrophomonas maltophilia (ATCC 13637); test: MIC determination, microbroth dilution
[11] = system: Legionella pneumophila (ATCC 33153); test: microbe, parasite or virus in culture; conditions: ATCC33153, 72 h, read-out: Zone of inhibition L.p.
[12] = system: Enterococcus faecalis (ATCC 33186); test: MIC determination, microbroth dilution
[13] = system: Klebsiella pneumoniae (ATCC 33495); test: MIC determination, microbroth dilution; conditions: ATCC33495
[14] = system: Haemophilus influenza (ATCC 49247); test: microbe, parasite or virus in culture; conditions: ATCC49247; Haemophilus influenza; 4 μg per disc; range of at least two experiments; read-out: Zone of inhibition H.i.
[15] = system: Staphylococcus aureus (ATCC 29213); test: MIC determination, microbroth dilution; conditions: ATCC29213; Staphylococcus aureus (ATCC 29213); read-out: MIC S.a.
[16] = system: Bacillus subtilis (ATCC 23857); test: MIC determination, microbroth dilution; conditions: ATCC23857; Bacillus subtilis (ATCC 23857); read-out: MIC B.s.
[17] = system: Burkholderia cepacia (ATCC 25416); test: MIC determination, microbroth dilution; conditions: Burkholderia cepacia
[18] = system: Proteus mirabilis (ATCC 25933); test: MIC determination, microbroth dilution; conditions: ATCC25933
[19] = system: Escherichia coli (ATCC 700926); test: MIC determination, microbroth dilution; conditions: ATCC700926; Escherichia coli (ATCC 700926); read-out: MIC E.c.
Bacillus anthracis = test: microbe, parasite or virus in culture; conditions: read-out: MIC B.a.
[20] = system: Proteus vulgaris (ATCC 33420); test: MIC determination, microbroth dilution; conditions: ATCC33420
E. coli K12 ΔtolC = test: microbe, parasite or virus in culture; conditions: Escherichia coli, read-out: MIC E.c. Δtolc
[21] = system: Streptococcus pyogenes (ATCC 700294); test: MIC determination, microbroth dilution
Moraxella catarrhalis = test: MIC determination (Table 6)
Yersinia pestis = test: microbe, parasite or virus in culture; conditions: read-out: MIC Y.p.
[22] = ATCC49226, agar MIC, read-out: MIC N.g.
[23] = Stenotrophomonas maltophilia, ATCC13637, read-out: MIC S.m.
[24] = ATCC33186, Enterococcus faecalis (ATCC 33186), read-out: MIC E.f.
[25] = ATCC25416, read-out: MIC B.c., Burkholderia cepacia (ATCC 25416)
[26] = ATCC25416, read-out: MIC B.c., Burkholderia cepacia, Table 6
[27] = ATCC700294, Streptococcus pyogenes (ATCC 700294), read-out: MIC S. py.
[28] = ATCC13637, Stenotrophomonas maltophilia (ATCC 13637), read-out: MIC S.m.
[29] = Enterococcus faecalis, ATCC33186, read-out: MIC E.f.

Row | SMILES | MIC [1] [µg/mL] | MIC [2] [µg/mL] | MIC [3] [µg/mL] | MIC [4] [µg/mL] | zone of inhibition at 4 µg/disc [5] [mm] | MIC (Listeria monocytogenes) [µg/mL] | MIC [7] [µg/mL] | MIC [8] [µg/mL] | zone of inhibition at 4 µg/disc [9] [mm] | zone of inhibition at 4 µg/disc [11] [mm] | MIC [13] [µg/mL] | zone of inhibition at 4 µg/disc [14] [mm] | MIC [15] [µg/mL] | MIC [16] [µg/mL] | MIC [17, 25] [µg/mL] | MIC [17, 26] [µg/mL] | MIC [18] [µg/mL] | MIC [19] [µg/mL] | MIC (Bacillus anthracis) [µg/mL] | MIC [20] [µg/mL] | further results
1 | CN[C@@H]1[C@H](O)[C@H](NC)[C@H]2O[C@]3(O)[C@H](O[C@@H]2[C@H]1O)O[C@H](C)C[C@@]3(O)CNCc1ccco1 [compound 8, 3′-(R)-3′-(2-furanylmethylaminomethyl)dihydrospectinomycin Trihydrochloride] | 200 | 50 | 25 | ≥ 200 | 10 | 25 | 12.5 | 200 | 8 | 41 | 200 | 9 | 50 | 12.5 | ≥ 200 | ≥ 200 | > 200 | 50 | 100 | > 200 | MIC [6, 22]: 50 µg/mL; MIC [10, 23]: 6.3 to 12.5 µg/mL; MIC [12, 24]: 50 µg/mL; MIC (E. coli K12 ΔtolC): 6.3 to 12.5 µg/mL; MIC [21, 27]: 12.5 to 25 µg/mL; MIC (Moraxella catarrhalis): 6.3 µg/mL
2 | CN[C@@H]1[C@H](O)[C@H](NC)[C@H]2O[C@]3(O)[C@H](O[C@@H]2[C@H]1O)O[C@H](C)C[C@@]3(O)CNCc1ccncc1 [compound 9, 3′-(R)-3′-(4-pyridinylmethylaminomethyl)dihydrospectinomycin Tetrahydrobromide] | ≥ 200 | 100 to 200 | 200 | ≥ 200 | 6 | 100 | 25 to 50 | ≥ 200 | 6 | 28 | > 200 | 8 | ≥ 200 | 200 | > 200 | > 200 | > 200 | 50 | 100 to 200 | > 200 | MIC [6, 22]: ≥ 200 µg/mL; MIC [10, 28]: 200 µg/mL; MIC [12, 24]: > 200 µg/mL; MIC (E. coli K12 ΔtolC): 12.5 µg/mL; MIC [21, 27]: 25 to 50 µg/mL; MIC (Moraxella catarrhalis): 12.5 µg/mL
3 | CN[C@@H]1[C@H](O)[C@H](NC)[C@H]2O[C@]3(O)[C@H](O[C@@H]2[C@H]1O)O[C@H](C)C[C@@]3(O)CNCc1ccccc1F [compound 14, 3′-(R)-3′-[(2-fluoro)benzylaminomethyl)]dihydrospectinomycin Trihydrochloride] | ≥ 200 | 50 to 100 | 50 | > 200 | 19 | 25 | 3.1 to 6.3 | ≥ 200 | 18 | 36 | ≥ 200 | 11 to 12 | 200 | 6.3 | 100 to 200 | 100 to 200 | > 200 | 50 | 50 to 100 | 100 | MIC (Yersinia pestis): > 200 µg/mL; MIC [6, 22]: 12.5 to 25 µg/mL; MIC [10, 28]: 12.5 to 25 µg/mL; MIC [12, 24]: 50 µg/mL; MIC (E. coli K12 ΔtolC): 25 µg/mL; MIC [21, 27]: 3.1 µg/mL; MIC (Moraxella catarrhalis): 1.6 µg/mL
4 | CN[C@@H]1[C@H](O)[C@H](NC)[C@H]2O[C@]3(O)[C@H](O[C@@H]2[C@H]1O)O[C@H](C)C[C@@]3(O)CNCc1cccc(F)c1 [compound 15, 3′-(R)-3′-[(3-fluoro)benzylaminomethyl)]dihydrospectinomycin Trihydrochloride] | 50 | 12.5 to 25 | 25 | > 200 | 20 | 6.3 | 3.1 | ≥ 200 | 18 | 41 | > 200 | 14 | 100 | 3.1 to 6.3 | ≥ 200 | ≥ 200 | > 200 | 25 to 50 | 12.5 to 25 | 200 | MIC (Yersinia pestis): 100 µg/mL; MIC [6, 22]: 25 to 50 µg/mL; MIC [10, 28]: 12.5 µg/mL; MIC [12, 29]: 12.5 to 25 µg/mL; MIC (E. coli K12 ΔtolC): 6.3 to 12.5 µg/mL; MIC [21, 27]: 3.1 µg/mL; MIC (Moraxella catarrhalis): 1.6 µg/mL
5 | CN[C@@H]1[C@H](O)[C@H](NC)[C@H]2O[C@]3(O)[C@H](O[C@@H]2[C@H]1O)O[C@H](C)C[C@@]3(O)CNCc1cccs1 [compound 17, 3′-(R)-3′-(2-thiophenylmethylaminomethyl)dihydrospectinomycin Trihydrochloride] | 100 to 200 | 50 | 25 | > 200 | 15 | 12.5 | 12.5 | ≥ 200 | 11 | 41 | 200 | 13 | 50 | 25 | > 200 | > 200 | > 200 | 50 | 50 | 200 | MIC [6, 22]: 50 µg/mL; MIC [10, 28]: 6.3 µg/mL; MIC [12, 24]: 50 µg/mL; MIC (E. coli K12 ΔtolC): 6.3 to 12.5 µg/mL; MIC ([21]; Streptococcus pyogenes, ATCC700294, read-out: MIC S. py.): 6.3 to 12.5 µg/mL; MIC (Moraxella catarrhalis): 3.1 µg/mL
6 | CN[C@@H]1[C@H](O)[C@H](NC)[C@H]2O[C@]3(O)[C@H](O[C@@H]2[C@H]1O)O[C@H](C)C[C@@]3(O)CNCc1nccs1 [compound 19, 3′-(R)-3′-(2-thiazolylmethyl)aminomethyldihydrospectinomycin Tetrahydrobromide] | > 200 | 100 | 100 | > 200 | 13 | 25 | 12.5 | > 200 | 9 | 39 | > 200 | 10 | 100 | 100 | > 200 | > 200 | > 200 | 200 | 100 | > 200 | MIC [6, 22]: 100 µg/mL; MIC [10, 28]: 25 to 50 µg/mL; MIC [12, 24]: 50 µg/mL; MIC (E. coli K12 ΔtolC): 12.5 to 25 µg/mL; MIC [21, 27]: 12.5 µg/mL; MIC (Moraxella catarrhalis): 12.5 µg/mL
7 | CN[C@@H]1[C@H](O)[C@H](NC)[C@H]2O[C@]3(O)[C@H](O[C@@H]2[C@H]1O)O[C@H](C)C[C@@]3(O)CNCc1ccc(Cl)s1 [compound 21, 3′-(A′)-3′-[(5-Chloro)-2-thiophenylmethylaminomethyl)dihydrospectinomycin Trihydrobromide] | 200 | 50 | 100 | > 200 | 19 | 6.3 | 3.1 | > 200 | 20 | 22 | > 200 | 13 | 25 to 50 | 25 to 50 | 200 | 200 | > 200 | 50 | 50 | ≥ 200 | MIC ([6]; ATCC49226, read-out: MIC N.g.): 12.5 to 25 µg/mL; MIC [10, 23]: 12.5 µg/mL; MIC [12, 29]: 12.5 µg/mL; MIC (E. coli K12 ΔtolC): 12.5 µg/mL; MIC [21, 27]: 1.6 µg/mL; MIC (Moraxella catarrhalis): 0.8 µg/mL
